Assay results: ChEMBL document CHEMBL3885881, “DrugMatrix”

Organism: Rattus norvegicus
Assay: DrugMatrix - Regimen: Daily Repeat
Type: toxicity, organism-based, Sprague-Dawley
Set-up: regimen Daily Repeat, gender Male, age 6-8 weeks
Settings: in vivo, sc, route subcutaneous, […]; for ABSOLUTE BASOPHIL / ABSOLUTE EOSINOPHIL / ABSOLUTE LYMPHOCYTE / ABSOLUTE MONOCYTE / ABSOLUTE SEGMENTED NEUTROPHIL / BASOPHIL / EOSINOPHIL / ERYTHROCYTE COUNT / HEMATOCRIT / LEUKOCYTE COUNT / MEAN CORPUSCULAR HEMOGLOBIN / MEAN CORPUSCULAR HEMOGLOBIN CONCENTRATION / MEAN CORPUSCULAR VOLUME / MONOCYTE / NEUTROPHIL / NUCLEATED RED BLOOD CELLS / PLATELET COUNT: tissue Blood; for ALANINE AMINOTRANSFERASE / ALBUMIN / ALKALINE PHOSPHATASE / ASPARTATE AMINOTRANSFERASE / BLOOD UREA NITROGEN / CHLORIDE / CHOLESTEROL / CREATINE PHOSPHOKINASE / CREATININE / GLUCOSE / LACTATE DEHYDROGENASE / LIPASE / PHOSPHORUS / POTASSIUM / TOTAL BILIRUBIN / URIC ACID: tissue Plasma
[1] = 79 mg/kg, 120 h, dose level High, time 5 day
[2] = 72 h, dose 1.3 mg/Kg, dose level Low, time 3 day
[3] = 120 h, dose 1.3 mg/Kg, dose level Low, time 5 day

Compound: C[C@H]1C[C@H]2[C@@H]3CCC4=CC(=O)C=C[C@]4(C)[C@@]3(F)[C@@H](O)C[C@]2(C)[C@@]1(O)C(=O)CO [BETAMETHASONE]
- ABSOLUTE BASOPHIL [1]: 0 CELLS/uL
- ABSOLUTE EOSINOPHIL [1]: 0 CELLS/uL
- ABSOLUTE LYMPHOCYTE [1]: 513.67 CELLS/uL
- ABSOLUTE MONOCYTE [1]: 201.67 CELLS/uL
- ABSOLUTE SEGMENTED NEUTROPHIL [1]: 19451.33 CELLS/uL
- BASOPHIL [1]: 0%
- EOSINOPHIL [1]: 0%
- ERYTHROCYTE COUNT [1]: 5.57 x10E6/uL
- HEMATOCRIT [1]: 34.53%
- LEUKOCYTE COUNT [1]: 20.17 x10E3/uL
- MEAN CORPUSCULAR HEMOGLOBIN [1]: 23.77 pg
- MEAN CORPUSCULAR HEMOGLOBIN CONCENTRATION [1]: 38.47 G/DL
- MEAN CORPUSCULAR VOLUME [1]: 61.87 fL
- MONOCYTE [1]: 1%
- NEUTROPHIL [1]: 95%
- NUCLEATED RED BLOOD CELLS [1]: 0 /100WBC
- PLATELET COUNT [1]: 893 x10E3/uL
- ALANINE AMINOTRANSFERASE [1]: 251.67 u/L
- ALBUMIN [1]: 4.5 G/DL
- ALKALINE PHOSPHATASE [1]: 329 u/L
- ASPARTATE AMINOTRANSFERASE [1]: 307.33 u/L
- BLOOD UREA NITROGEN [1]: 21.67 mg/dL
- CHLORIDE [1]: 93.67 MEQ/L
- CHOLESTEROL [1]: 105 mg/dL
- CREATINE PHOSPHOKINASE [1]: 200.33 u/L
- CREATININE [1]: 0.3 mg/dL
- GLUCOSE [1]: 505.67 mg/dL
- LACTATE DEHYDROGENASE [1]: 602 u/L
- LIPASE [1]: 11.33 u/L
- PHOSPHORUS [1]: 11.1 mg/dL
- POTASSIUM [1]: 5.39 MEQ/L
- TOTAL BILIRUBIN [1]: 0.23 mg/dL
- URIC ACID [1]: 1 mg/dL
- ABSOLUTE BASOPHIL [2]: 0 CELLS/uL
- ABSOLUTE EOSINOPHIL [2]: 15.33 CELLS/uL
- ABSOLUTE LYMPHOCYTE [2]: 4290.33 CELLS/uL
- ABSOLUTE MONOCYTE [2]: 15.33 CELLS/uL
- ABSOLUTE SEGMENTED NEUTROPHIL [2]: 845.67 CELLS/uL
- BASOPHIL [2]: 0%
- EOSINOPHIL [2]: 0.33%
- ERYTHROCYTE COUNT [2]: 5.47 x10E6/uL
- HEMATOCRIT [2]: 33.27%
- LEUKOCYTE COUNT [2]: 5.17 x10E3/uL
- MEAN CORPUSCULAR HEMOGLOBIN [2]: 24.57 pg
- MEAN CORPUSCULAR HEMOGLOBIN CONCENTRATION [2]: 40.37 G/DL
- MEAN CORPUSCULAR VOLUME [2]: 60.9 fL
- MONOCYTE [2]: 0.33%
- NEUTROPHIL [2]: 17%
- NUCLEATED RED BLOOD CELLS [2]: 0 /100WBC
- PLATELET COUNT [2]: 1195.33 x10E3/uL
- ALANINE AMINOTRANSFERASE [2]: 49.67 u/L
- ALBUMIN [2]: 5.1 G/DL
- ALKALINE PHOSPHATASE [2]: 401.67 u/L
- ASPARTATE AMINOTRANSFERASE [2]: 97 u/L
- BLOOD UREA NITROGEN [2]: 15 mg/dL
- CHLORIDE [2]: 98.67 MEQ/L
- CHOLESTEROL [2]: 79.33 mg/dL
- CREATINE PHOSPHOKINASE [2]: 415.33 u/L
- CREATININE [2]: 0.19 mg/dL
- GLUCOSE [2]: 120 mg/dL
- LACTATE DEHYDROGENASE [2]: 165.33 u/L
- LIPASE [2]: 11 u/L
- PHOSPHORUS [2]: 11.13 mg/dL
- POTASSIUM [2]: 6.2 MEQ/L
- TOTAL BILIRUBIN [2]: 0.17 mg/dL
- URIC ACID [2]: 0.9 mg/dL
- ABSOLUTE BASOPHIL [3]: 0 CELLS/uL
- ABSOLUTE EOSINOPHIL [3]: 75.67 CELLS/uL
- ABSOLUTE LYMPHOCYTE [3]: 4789.67 CELLS/uL
- ABSOLUTE MONOCYTE [3]: 25 CELLS/uL
- ABSOLUTE SEGMENTED NEUTROPHIL [3]: 1976.33 CELLS/uL
- BASOPHIL [3]: 0%
- EOSINOPHIL [3]: 1%
- ERYTHROCYTE COUNT [3]: 6.27 x10E6/uL
- HEMATOCRIT [3]: 38.47%
- LEUKOCYTE COUNT [3]: 6.87 x10E3/uL
- MEAN CORPUSCULAR HEMOGLOBIN [3]: 24.07 pg
- MEAN CORPUSCULAR HEMOGLOBIN CONCENTRATION [3]: 39.23 G/DL
- MEAN CORPUSCULAR VOLUME [3]: 61.3 fL
- MONOCYTE [3]: 0.33%
- NEUTROPHIL [3]: 30.33%
- NUCLEATED RED BLOOD CELLS [3]: 0 /100WBC
- PLATELET COUNT [3]: 1459.67 x10E3/uL
- ALANINE AMINOTRANSFERASE [3]: 71 u/L
- ALBUMIN [3]: 5.1 G/DL
- ALKALINE PHOSPHATASE [3]: 397 u/L
- ASPARTATE AMINOTRANSFERASE [3]: 114 u/L
- BLOOD UREA NITROGEN [3]: 17.33 mg/dL
- CHLORIDE [3]: 102.67 MEQ/L
- CHOLESTEROL [3]: 70.33 mg/dL
- CREATINE PHOSPHOKINASE [3]: 195.67 u/L
- CREATININE [3]: 0.16 mg/dL
- GLUCOSE [3]: 164.67 mg/dL
- LACTATE DEHYDROGENASE [3]: 354.67 u/L
- LIPASE [3]: 9.67 u/L
- PHOSPHORUS [3]: 13.03 mg/dL
- POTASSIUM [3]: 7 MEQ/L
- TOTAL BILIRUBIN [3]: 0.2 mg/dL
- URIC ACID [3]: 1.8 mg/dL
